Results on 56 compounds are retold here after article PMC10764104, “Discovery of Molecular Glue Degraders via Isogenic Morphological Profiling” (ACS Chemical Biology, 2023).

One assay has as its target T1, recombinant DDB1-CRBN (Homo sapiens, UniProt Q96SW2).
T1 construct: His; made in house; host or cells: High Five insect cells (baculovirus made and propagated in SF9 cells)
Nature of the assay: Fluorescence polarization-based competition assay for CRBN binding.
Settings: not given
How it is done:
Prior to screening the compound library in the isogenic CPA, we assessed their CRBN binding affinities using a fluorescence-polarization-based competition assay with recombinant DDB1-CRBN and the fluorescent tracer 16 (Figure S2). […] We also assessed the cytotoxicity of the CRBN binders in RKO wild-type (WT) cells to determine the appropriate treatment concentration. […]
Fluorescence Polarization‐based competition assay
Fluorescence Polarization assays were performed in 384‐well, Low Volume, Black, Round Bottom, Polystyrene Nonbinding surface Microplates (Corning, #4514). The test compounds were incubated with 200 nM CRBN‐DDB1 and 20 nM Pomalidomide‐fluorescein tracer 16 in 50 mM Tris‐HCl pH 7.5, 200 mM NaCl, 1 mM DTT, 0.02% Triton X‐ 100, and 0.1 µg/µL Bovine Serum Albumin (Sigma Aldrich, #A7030) in a total volume of 25 µL. Fluorescence polarization values were determined with a PerkinElmer Envision reader with FITC FP dual mirror and FITC FP 480 excitation filter and FITC FP 535 emission filters. Fluorescence polarization values of a 10x serial dilution (10 nM to 100 µM) of the test compounds were determined in triplicates. EC50 values were calculated with GraphPad Prism software (version 10.0.2) with a non‐linear fit function (4PL sigmoidal curve fit) adjusting the bottom constrain to the FP value of free tracer. […]
In the case of `O=C1CCC(c2ccccc2OS(=O)(=O)F)C(=O)N1` (centres unmarked) [FL7], the concentration giving a half-maximal response (EC50) was found to be 72400 nM.

The assay is the same for the next values; noted with them: 200 nM CRBN-DDB1, 20 nM pomalidomide-fluorescein tracer 16, triplicates; read-out: FP_CRBN_binding: CRBN binding affinity, EC50.
As for `O=C1CCC(N2C(=O)c3ccc(Nc4cccc(OS(=O)(=O)N5CCOCC5)c4)cc3C2=O)C(=O)N1` (centres unmarked) [FL1-5], the EC50 is 301 nM.
In the case of `CN(Cc1ncnn1C)S(=O)(=O)Oc1ccc(C2CCC(=O)NC2=O)cc1` (centres unmarked) [FL5-11], the 50% effective concentration (EC50) is 1270 nM.
The same measure, in the same setting: then `O=C1CCC(c2ccc(OS(=O)(=O)N3CCOCC3)cc2)C(=O)N1` (centres unmarked) [FL5-5], with 829 nM; and `O=C1CCC(N2C(=O)c3cccc(Nc4ccc(OS(=O)(=O)N5CC(CCO)C5)cc4)c3C2=O)C(=O)N1` (centres unmarked) [FL4-2], with 557 nM; and `O=C1CCC(N2C(=O)c3cccc(Nc4ccc(OS(=O)(=O)N5CCC(c6ccco6)C5)cc4)c3C2=O)C(=O)N1` (centres unmarked) [FL4-12], with 4560 nM.
On the same count and under the same terms, then `CN(C1CC1)S(=O)(=O)Oc1cccc(Nc2cccc3c2C(=O)N(C2CCC(=O)NC2=O)C3=O)c1` (centres unmarked) [FL3-21], with 1020 nM.
On the same count and under the same terms, in the case of `CN(Cc1ccc2c(c1)OCO2)S(=O)(=O)Oc1ccc(C2CCC(=O)NC2=O)cc1` (centres unmarked) [FL5-20] it was 775 nM; in that of `CC1(C)CN(S(=O)(=O)Oc2cccc(C3CCC(=O)NC3=O)c2)CCS1(=O)=O` (centres unmarked) [FL6-7], 743 nM.
Turning to `O=C1CCC(c2ccc(OS(=O)(=O)N3C[C@@H](F)[C@H](F)C3)cc2)C(=O)N1` (some centres unmarked) [FL5-10], the half-maximal effective concentration (EC50) was found to be 893 nM.
The same measure, in the same setting: in the case of `CC1c2cc(F)ccc2CCN1S(=O)(=O)Oc1cccc(C2CCC(=O)NC2=O)c1` (centres unmarked) [FL6-17] it was 803 nM; in that of `CN(Cc1ccc2[nH]nnc2c1)S(=O)(=O)Oc1ccc(C2CCC(=O)NC2=O)cc1` (centres unmarked) [FL5-15], 502 nM; in that of `CN(Cc1ccc2c(c1)OCO2)S(=O)(=O)Oc1cccc(Nc2cccc3c2C(=O)N(C2CCC(=O)NC2=O)C3=O)c1` (centres unmarked) [FL3-20], 1570 nM.
Consider `O=C1CCC(N2C(=O)c3ccc(Nc4ccc(OS(=O)(=O)N5CC(CCO)C5)cc4)cc3C2=O)C(=O)N1` (centres unmarked) [FL2-2], for which the 50% effective concentration (EC50) was found to be 675 nM.
On the same count and under the same terms, then `O=C1CCC(N2C(=O)c3cccc(Nc4cccc(OS(=O)(=O)N5CCOCC5)c4)c3C2=O)C(=O)N1` (centres unmarked) [FL3-5], with 214 nM; and `CN(Cc1ncc(C2CC2)o1)S(=O)(=O)Oc1ccc(C2CCC(=O)NC2=O)cc1` (centres unmarked) [FL5-14], with 600 nM; and `CC1c2cc(F)ccc2CCN1S(=O)(=O)Oc1cccc(Nc2cccc3c2C(=O)N(C2CCC(=O)NC2=O)C3=O)c1` (centres unmarked) [FL3-17], with 1310 nM.
Still for that read-out and setting: then `CC(C)(O)C1CCN(S(=O)(=O)Oc2cccc(Nc3ccc4c(c3)C(=O)N(C3CCC(=O)NC3=O)C4=O)c2)C1` (centres unmarked) [FL1-4], with 481 nM; and `O=C1CCC(N2C(=O)c3ccc(Nc4cccc(OS(=O)(=O)N5CCC(c6ccncc6)CC5)c4)cc3C2=O)C(=O)N1` (centres unmarked) [FL1-16], with 682 nM; and `O=C1CCC(N2C(=O)c3cccc(Nc4ccc(OS(=O)(=O)N5CCOCC5)cc4)c3C2=O)C(=O)N1` (centres unmarked) [FL4-5], with 652 nM.
On the same count and under the same terms, then `Cc1cn2c(n1)CN(S(=O)(=O)Oc1cccc(C3CCC(=O)NC3=O)c1)CC2` (centres unmarked) [FL6-13], with 1080 nM; and `C[C@@H]1C[C@H](C)CN(S(=O)(=O)Oc2cccc(Nc3ccc4c(c3)C(=O)N(C3CCC(=O)NC3=O)C4=O)c2)C1` (some centres unmarked) [FL1-6], with 3030 nM.
Turning to `CN(C1CC1)S(=O)(=O)Oc1ccc(Nc2cccc3c2C(=O)N(C2CCC(=O)NC2=O)C3=O)cc1` (centres unmarked) [FL4-21], the EC50 turned out to be 1080 nM.
Same read-out and setting: then `CN(Cc1ncnn1C)S(=O)(=O)Oc1ccc(Nc2cccc3c2C(=O)N(C2CCC(=O)NC2=O)C3=O)cc1` (centres unmarked) [FL4-11], with 538 nM; and `C[C@@H]1C[C@H](C)CN(S(=O)(=O)Oc2ccc(Nc3cccc4c3C(=O)N(C3CCC(=O)NC3=O)C4=O)cc2)C1` (some centres unmarked) [FL4-6], with 3650 nM.
For `O=C1CCC(N2C(=O)c3ccc(Nc4ccc(OS(=O)(=O)N5C[C@@H](F)[C@H](F)C5)cc4)cc3C2=O)C(=O)N1` (some centres unmarked) [FL2-10], the concentration for a half-maximal effect (EC50) turned out to be 1270 nM.
The same measure, in the same setting: in the case of `O=C1CCC(N2C(=O)c3cccc(Nc4cccc(OS(=O)(=O)N5CCC(c6ccncc6)CC5)c4)c3C2=O)C(=O)N1` (centres unmarked) [FL3-16] it was 264 nM; in that of `CC(C)(O)C1CCN(S(=O)(=O)Oc2ccc(C3CCC(=O)NC3=O)cc2)C1` (centres unmarked) [FL5-4], 948 nM; in that of `CN(Cc1ncnn1C)S(=O)(=O)Oc1cccc(Nc2cccc3c2C(=O)N(C2CCC(=O)NC2=O)C3=O)c1` (centres unmarked) [FL3-11], 449 nM.
On to `CC1(C)CN(S(=O)(=O)Oc2ccc(C3CCC(=O)NC3=O)cc2)CCS1(=O)=O` (centres unmarked) [FL5-7], for which the concentration for a half-maximal effect (EC50) stood at 864 nM.
Take `C[C@@H]1C[C@H](C)CN(S(=O)(=O)Oc2cccc(Nc3cccc4c3C(=O)N(C3CCC(=O)NC3=O)C4=O)c2)C1` (some centres unmarked) [FL3-6]: the EC50 was found to be 2770 nM.
Still for that read-out and setting: then `O=C1CCC(c2cccc(OS(=O)(=O)N3CCOCC3)c2)C(=O)N1` (centres unmarked) [FL6-5], with 679 nM; and `O=C1CCC(c2cccc(OS(=O)(=O)N3CC4(CNC(=O)N4)C3)c2)C(=O)N1` (centres unmarked) [FL6-9], with 713 nM; and `CC1c2cccn2CCN1S(=O)(=O)Oc1cccc(Nc2cccc3c2C(=O)N(C2CCC(=O)NC2=O)C3=O)c1` (centres unmarked) [FL3-19], with 742 nM.
The same measure, in the same setting: in the case of `CN(C1CC1)S(=O)(=O)Oc1cccc(C2CCC(=O)NC2=O)c1` (centres unmarked) [FL6-21] it was 1070 nM; in that of `CC(C)(O)C1CCN(S(=O)(=O)Oc2ccc(Nc3cccc4c3C(=O)N(C3CCC(=O)NC3=O)C4=O)cc2)C1` (centres unmarked) [FL4-4], 688 nM.
Same read-out and setting: in the case of `O=C1CCC(c2ccc(OS(=O)(=O)N3CC(CCO)C3)cc2)C(=O)N1` (centres unmarked) [FL5-2] it was 1060 nM.
On to `CC(O)CN(C)S(=O)(=O)Oc1ccc(Nc2cccc3c2C(=O)N(C2CCC(=O)NC2=O)C3=O)cc1` (centres unmarked) [FL4-1], for which the EC50 was found to be 370 nM.
`O=C1CCC(c2cccc(OS(=O)(=O)N3CCC(c4ccncc4)CC3)c2)C(=O)N1` (centres unmarked) [FL6-16]: the EC50 was 645 nM.
For the compound `CC1(C)CN(S(=O)(=O)Oc2cccc(Nc3cccc4c3C(=O)N(C3CCC(=O)NC3=O)C4=O)c2)CC2(CCOC2)O1` (centres unmarked) [FL3-8], the half-maximal effective concentration (EC50) is 911 nM.
`O=C1CCC(N2C(=O)c3cccc(Nc4cccc(OS(=O)(=O)N5CC6(CNC(=O)N6)C5)c4)c3C2=O)C(=O)N1` (centres unmarked) [FL3-9]: the EC50 amounted to 330 nM.
Same read-out and setting: in the case of `CN(Cc1ncnn1C)S(=O)(=O)Oc1cccc(C2CCC(=O)NC2=O)c1` (centres unmarked) [FL6-11] it was 887 nM; in that of `O=C1CCC(c2ccc(OS(=O)(=O)N3CCC(c4ccncc4)CC3)cc2)C(=O)N1` (centres unmarked) [FL5-16], 4220 nM; in that of `Cc1cn2c(n1)CN(S(=O)(=O)Oc1ccc(Nc3ccc4c(c3)C(=O)N(C3CCC(=O)NC3=O)C4=O)cc1)CC2` (centres unmarked) [FL2-13], 526 nM.
The same measure, in the same setting: in the case of `O=C1CCC(N2C(=O)c3cccc(Nc4ccc(OS(=O)(=O)N5CC6(CNC(=O)N6)C5)cc4)c3C2=O)C(=O)N1` (centres unmarked) [FL4-9] it was 445 nM; in that of `CC1(C)CN(S(=O)(=O)Oc2ccc(C3CCC(=O)NC3=O)cc2)CC2(CCOC2)O1` (centres unmarked) [FL5-8], 1340 nM.
Same read-out and setting: in the case of `CC1(C)CN(S(=O)(=O)Oc2ccc(Nc3ccc4c(c3)C(=O)N(C3CCC(=O)NC3=O)C4=O)cc2)CCS1(=O)=O` (centres unmarked) [FL2-7] it was 731 nM; in that of `CN(Cc1ccc2[nH]nnc2c1)S(=O)(=O)Oc1cccc(Nc2cccc3c2C(=O)N(C2CCC(=O)NC2=O)C3=O)c1` (centres unmarked) [FL3-15], 990 nM; in that of `Cc1cn2c(n1)CN(S(=O)(=O)Oc1cccc(Nc3ccc4c(c3)C(=O)N(C3CCC(=O)NC3=O)C4=O)c1)CC2` (centres unmarked) [FL1-13], 482 nM.
For the compound `O=C1CCC(c2ccc(OS(=O)(=O)N3CC4(CNC(=O)N4)C3)cc2)C(=O)N1` (centres unmarked) [FL5-9], the EC50 amounted to 1050 nM.
Regarding `CC(O)CN(C)S(=O)(=O)Oc1cccc(Nc2cccc3c2C(=O)N(C2CCC(=O)NC2=O)C3=O)c1` (centres unmarked) [FL3-1], the 50% effective concentration (EC50) came to 301 nM.
On to `O=C1CCC(N2C(=O)c3ccc(Nc4ccc(OS(=O)(=O)N5CC6(CNC(=O)N6)C5)cc4)cc3C2=O)C(=O)N1` (centres unmarked) [FL2-9], for which the half-maximal effective concentration (EC50) came to 414 nM.
The same measure, in the same setting: in the case of `CC1c2cccn2CCN1S(=O)(=O)Oc1ccc(Nc2cccc3c2C(=O)N(C2CCC(=O)NC2=O)C3=O)cc1` (centres unmarked) [FL4-19] it was 687 nM; in that of `O=C1CCC(N2C(=O)c3ccc(Nc4ccc(OS(=O)(=O)N5CCC(c6ccncc6)CC5)cc4)cc3C2=O)C(=O)N1` (centres unmarked) [FL2-16], 1970 nM; in that of `CC1c2cc(F)ccc2CCN1S(=O)(=O)Oc1cccc(Nc2ccc3c(c2)C(=O)N(C2CCC(=O)NC2=O)C3=O)c1` (centres unmarked) [FL1-17], 1840 nM.
`CC1(C)CN(S(=O)(=O)Oc2ccc(Nc3cccc4c3C(=O)N(C3CCC(=O)NC3=O)C4=O)cc2)CC2(CCOC2)O1` (centres unmarked) [FL4-8]: the concentration for a half-maximal effect (EC50) was determined as 1960 nM.
